Reference: US20240174652A1, “NOVEL DIOXANE DERIVATIVES” (Boehringer Ingelheim International GmbH, priority 2022, published 2024)

Target: human metabotropic Glutamate 4 receptor (Homo sapiens (Human), UniProt Q14833)
Assay: Assay A: in vitro testing of mGluR4 potency (cAMP HTRF, glutamate/forskolin stimulated)
Format: cell-based
Conditions: HEK293 cells overexpressing human mGluR4, 10 uM L-glutamic acid, 1 uM forskolin
Experimental: A. In Vitro Testing of mGluR4 Potency The in vitro activity of the compounds according to the invention may be investigated as follows:
The HEK293 cell overexpressing the human metabotropic Glutamate 4 receptor are thawed at 37° C. and immediately diluted with cell culture medium. After centrifugation, the cell pellet is re-suspended in medium and then distributed from a stirred spinner flask into the wells of the assay plate. The plates are incubated for one hour at room temperature before they are incubated for 24 hours at 37° C./5% CO2. After washing the cells in the plate three times with 80 uL HBSS/HEPES buffer (10 uL buffer remained in the wells after washing), 5 uL per well of compounds diluted in HBSS/HEPES buffer containing 0.2% BSA (final concentration: 0.1%) and 1 mM IBMX (final concentration: 0.5 mM) are added to the wells of the assay plate. Thereafter 5 uL per well of L-Glutamic acid (final concentration: 10 uM), forskolin (final concentration: 1 uM) and 1 mM IBMX (final concentration: 0.5 mM) dissolved in HBSS/HEPES buffer containing 0.2% BSA (final concentration: 0.1%) are added to the assay plate (final DMSO concentration: 1%). Several wells of the assay plate are used either for the positive and the negative controls or for the cAMP standard curve. The assay plate is incubated for 30 minutes at room temperature. Then 5 ul per well of Anti-cAMP-Antibody-d2 solution and 5 ul per well of cAMP-Europium Cryptate dilution are added to all wells of the plate and the plate is incubated another 60 minutes light protected at room temperature. The emission at 615 nm and 665 nm (Excitation wavelength: 320 nm) are measured on the EnVision™ reader (Perkin Elmer). The ratio between the emission at 665 nm and 615 is calculated by the reader. The whole assay is performed in the dark or under green light.
The cAMP standard is prepared by diluting the cAMP stock solution with HBSS/Hepes buffer: 5 μl/well of the cAMP dilutions (in HBSS/Hepes buffer containing 1 mM IBMX and 0.2% BSA—final concentration: 0.5 mM IBMX and 0.1% BSA) are added to 10 ul/well HBSS/Hepes buffer plus 5 ul/well 4% DMSO in HBSS/Hepes containing 0.2% BSA (final DMSO concentration: 1% —like in the wells containing compounds) in the wells of the assay plate. The final cAMP concentrations in the assay plate are: 0, 0.17, 0.69, 2.78, 11.1, 44.5, 178, and 712 nM (two wells/cAMP concentration).
Each assay microtiter plate contained also wells with vehicle controls instead of compound as controls for L-Glutamic acid induced signal (negative control; 100% CTL; 10 uM L-Glutamic acid+1 uM forskolin+0.5 mM IBMX+1% DMSO) and wells with vehicle controls without L-Glutamic acid as controls for non-specific changes in signal (positive control; 0% CTL; 0 uM L-Glutamic acid+1 uM forskolin+0.5 mM IBMX+1% DMSO).
The analysis of the data is performed by the calculation the ratio between the emission at 665 nm and the emission at 615 nm (Em665/Em615 ratio). Thereafter the signals of the compounds are normalized using the positive and negative controls by the following formula:
PoC=100×((Signal Sample−Positive Control)/(Negative Control−Positive Control))

[1] = compounds of the present invention
[2] = prior-art compounds of WO2019/138017

Sequence of human metabotropic Glutamate 4 receptor (Q14833 33-912): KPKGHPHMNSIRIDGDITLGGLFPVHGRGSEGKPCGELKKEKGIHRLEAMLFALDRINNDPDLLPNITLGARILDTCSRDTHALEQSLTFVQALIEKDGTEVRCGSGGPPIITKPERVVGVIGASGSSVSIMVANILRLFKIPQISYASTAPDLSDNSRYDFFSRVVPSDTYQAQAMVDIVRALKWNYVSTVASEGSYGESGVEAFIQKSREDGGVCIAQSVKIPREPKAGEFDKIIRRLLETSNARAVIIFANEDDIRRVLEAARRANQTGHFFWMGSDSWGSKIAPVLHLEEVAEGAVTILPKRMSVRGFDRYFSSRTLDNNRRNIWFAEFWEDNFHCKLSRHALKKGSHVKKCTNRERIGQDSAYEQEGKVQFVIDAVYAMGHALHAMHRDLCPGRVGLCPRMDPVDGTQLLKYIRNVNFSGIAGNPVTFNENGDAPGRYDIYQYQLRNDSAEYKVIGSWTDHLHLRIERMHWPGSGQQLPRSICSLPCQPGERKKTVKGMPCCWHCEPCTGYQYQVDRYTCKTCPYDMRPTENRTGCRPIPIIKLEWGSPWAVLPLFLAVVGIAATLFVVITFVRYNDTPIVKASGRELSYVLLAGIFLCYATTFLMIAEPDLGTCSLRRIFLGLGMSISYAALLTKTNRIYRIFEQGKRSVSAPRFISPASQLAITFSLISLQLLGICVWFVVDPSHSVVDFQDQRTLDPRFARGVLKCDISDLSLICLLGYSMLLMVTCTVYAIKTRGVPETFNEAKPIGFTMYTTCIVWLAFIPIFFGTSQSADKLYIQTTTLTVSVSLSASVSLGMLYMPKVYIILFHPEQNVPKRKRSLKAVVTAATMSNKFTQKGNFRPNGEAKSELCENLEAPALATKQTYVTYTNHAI

Compound	IC50 [1] [nM]	IC50 [2] [nM]
Cc1cnc(C(=O)NC(c2nc3cc(C(F)(F)F)ccc3n2C)C2COCCO2)cn1 (single isomer, unassigned) [Example 1-1, N-[(1,4-dioxan-2-yl)[1-methyl-5-(trifluoromethyl)-1H-1,3-benzodiazol-2-yl]methyl]-5-methylpyrazine-2-carboxamide]	67	–
Cc1cnc(C(=O)NC(c2nc3cc(Cl)ccc3n2CC(F)F)C2COCCO2)cn1 (single isomer, unassigned) [Example 4, N-{[5-chloro-1-(2,2-difluoroethyl)-1H-1,3-benzodiazol-2-yl](1,4-dioxan-2-yl)methyl}-5-methylpyrazine-2-carboxamide]	7	–
Cc1cnc(C(=O)NC(c2nc3cc(Cl)ccc3n2CC(F)F)C2COCCO2)cn1 (single isomer, unassigned) [Example 5]	62	–
Cc1cnc(C(=O)NC(c2nc3ccc(C(F)(F)F)cc3n2CC(F)F)C2COCCO2)cn1 (single isomer, unassigned) [Example 6]	6	–
Cc1cnc(C(=O)NC(c2nc3ccc(C(F)(F)F)cc3n2C)C2COCCO2)cn1 (single isomer, unassigned) [Example 7, N-[(1,4-dioxan-2-yl)[1-methyl-6-(trifluoromethyl)-1H-1,3-benzodiazol-2-yl]methyl]-5-methylpyrazine-2-carboxamide]	70	–
Cc1cnc(C(=O)NC(c2nc3cc(F)c(F)cc3n2CC(F)F)C2COCCO2)cn1 (single isomer, unassigned) [Example 9, N-{[1-(2,2-difluoroethyl)-5,6-difluoro-1H-1,3-benzodiazol-2-yl](1,4-dioxan-2-yl)methyl}-5-methylpyrazine-2-carboxamide]	11	–
CCn1c(C(NC(=O)c2cnc(C)cn2)C2COCCO2)nc2cc(F)ccc21 (single isomer, unassigned) [Example 10, N-[(1,4-dioxan-2-yl)(1-ethyl-5-fluoro-1H-1,3-benzodiazol-2-yl)methyl]-5-methylpyrazine-2-carboxamide]	20	–
CCn1c(C(NC(=O)c2cnc(C)cn2)C2COCCO2)nc2cc(F)c(F)cc21 (single isomer, unassigned) [Example 11]	15	–
Cc1cnc(C(=O)N[C@H](c2nc3cc(C(F)(F)F)ccc3n2C)[C@H]2COCCO2)cn1 [Example 1, N-[(R)-[(2S)-1,4-dioxan-2-yl][1-methyl-5-(trifluoromethyl)-1H-1,3-benzodiazol-2-yl]methyl]-5-methylpyrazine-2-carboxamide]	20	–
Cc1cnc(C(=O)N[C@H](c2nc3cc(F)ccc3n2CC(F)F)[C@H]2COCCO2)cn1 [Example 2, N-[(R)-[1-(2,2-difluoroethyl)-5-fluoro-1H-1,3-benzodiazol-2-yl][(2S)-1,4-dioxan-2-yl]methyl]-5-methylpyrazine-2-carboxamide]	14	–
CCn1c([C@@H](NC(=O)c2cnc(C)cn2)[C@H]2COCCO2)nc2cc(C(F)(F)F)ccc21 [Example 3, N-[(R)-[(2S)-1,4-dioxan-2-yl][1-ethyl-5-(trifluoromethyl)-1H-1,3-benzodiazol-2-yl]methyl]-5-methylpyrazine-2-carboxamide]	5	–
Cc1nocc1C(=O)N[C@H](c1nc2cccc(F)c2[nH]1)[C@H]1CC[C@H](C)CC1 [Example 8 in WO2019/ 138017, reference compound]	–	9850
Cc1cnc(C(=O)N[C@H](c2nc3ccc(F)cc3n2CC(F)F)[C@H]2COCCO2)cn1 [Example 8, N-[(R)-[1-(2,2-difluoroethyl)-6-fluoro-1H-1,3-benzodiazol-2-yl][(2S)-1,4-dioxan-2-yl]methyl]-5-methylpyrazine-2-carboxamide]	31	–
COc1ccc2[nH]c(C(NC(=O)c3conc3C)C3CCCCCCC3)nc2c1F (centres unmarked) [Example 12 in WO2019/ 138017, reference compound]	–	> 10000
CCn1nccc1C(=O)N[C@H](c1nc2ccc(C#N)c(F)c2[nH]1)[C@H]1CC[C@H](C)CC1 [Example 125 in WO2019/ 138017, reference compound]	–	5600
Cn1nccc1C(=O)N[C@H](c1nc2c(F)c(Br)ccc2n1C)[C@H]1CC[C@@H](C)CC1 [Intermediate 250 in WO2019/ 138017 (regioisomere 1), reference compound]	–	6300
Cn1nccc1C(=O)N[C@H](c1nc2c(F)c(Br)ccc2n1C)[C@H]1CC[C@H](C)CC1 [Intermediate 250 in WO2019/ 138017 (regioisomere 2), reference compound]	–	4000
